The target of the assay is T1, GABAAR-mediated currents, β2E181G KI mice (Mus musculus, UniProt P63137, E206G).
T1 construct: from tissue; host or cells: acute hippocampal slices of homozygous β2E181G knock-in mice (C57BL/6J), CA1 neurons
The experiment in a line: Whole-cell recording of CA1 neurons, hippocampal slices of homozygous β2E181G KI mice. The class given is cell-based. As to conditions: L-Glu 50 µM; KI slices. As to the method: We next determined if glutamate-mediated allosteric potentiation of GABAAR function was impaired in hippocampal slices acutely prepared from postnatal 90-day-old KI mice. Whole-cell recordings of CA1 neurons were performed under voltage clamp configuration at a holding potential of −60 mV.
Mice were deeply anesthetized with urethane (1.5 g/kg, i.p.) and transcardially perfused with ice cold sucrose hypertonic cutting solution (in mM: KCl 3.0, NaH2PO4.H2O 1.25, NaHCO3 26, Na-vitamin C 0.4, Na-lactate 2.0, Na-pyruvate 2.0, D-glucose 10.0, Sucrose 220, CaCl2 0.1, MgCl2 2, MgSO4 4.0, pH 7.4, 290–300 mOsm/l) prior to decapitation as described previously.[47] After decapitation, the brain was rapidly removed and transferred to the ice cold cutting solution bubbled with 95% O2 and 5% CO2, and acute coronal brain slices (400 μm) were prepared on a Leica vibratome (VT1200S, Germany). All brain slices were placed into a standard artificial cerebral spinal fluid (ACSF) (in mM: NaCl 124, KCl 2.8, NaH2PO4.H2O 1.25, NaHCO3 26, Na-vitamin C 0.4, Na-lactate 2.0, Na-pyruvate 2.0, D-glucose 10.0, CaCl2 2, MgSO4 1.2, pH 7.4, 290–300 mOsm/l) incubated at 35 °C for 2 h prior to recording. Field excitatory postsynaptic potential (fEPSP) recordings were performed under current-clamp mode using HEKA EPC10 patch-clamp amplifier (HEKA Electronic, Lambrecht/Pfalz, Germany). […]

T1 sequence (P63137 26-512 E206G): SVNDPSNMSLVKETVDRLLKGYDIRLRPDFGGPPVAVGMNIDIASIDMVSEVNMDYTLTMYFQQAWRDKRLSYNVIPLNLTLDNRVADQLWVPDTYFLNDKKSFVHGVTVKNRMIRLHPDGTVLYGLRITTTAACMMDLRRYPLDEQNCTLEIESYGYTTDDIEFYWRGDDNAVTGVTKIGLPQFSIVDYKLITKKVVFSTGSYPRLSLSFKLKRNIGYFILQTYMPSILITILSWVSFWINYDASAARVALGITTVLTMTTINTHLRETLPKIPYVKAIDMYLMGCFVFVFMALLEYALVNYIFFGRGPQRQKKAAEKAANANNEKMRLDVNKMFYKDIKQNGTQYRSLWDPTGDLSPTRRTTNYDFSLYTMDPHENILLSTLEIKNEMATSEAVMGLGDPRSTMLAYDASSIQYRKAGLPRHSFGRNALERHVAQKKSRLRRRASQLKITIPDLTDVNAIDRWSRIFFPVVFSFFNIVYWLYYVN

For the compound `N[C@@H](CCC(=O)O)C(=O)O` [glutamate, Glutamate], the “eIPSCs relative to baseline” value is recorded as 114.2 ± 9.9%.

Source of the values: article PMC9527238, “Glutamate and GABAA receptor crosstalk mediates homeostatic regulation of neuronal excitation in the mammalian brain” (Signal Transduction and Targeted Therapy, 2022).
